Source: PMC3879368, “Characterisation of a Multi-ligand Binding Chemoreceptor CcmL (Tlp3) of Campylobacter jejuni” (PLoS Pathogens, 2014)
pKd: −log10 of the molar value. Values joined by “and” are separate entries in the source; they are usually repeats but may differ in a detail not shown here. Equal values may be shown once. “Also recorded” adds a separate entry of the source. Read-outs that look alike come from different tables or passages of the source.

Columns and labels:
C. jejuni 11168-O Δtlp3 = type: cell-based, Campylobacter jejuni; conditions: for Increase in bacterial numbers around ligand plug, Δtlp3 compared to wild type: repellents; for Viable counts of C. jejuni associated with ligand plug: Δtlp3, plug with 2 mM ligand, 37°C, 4 h; for Reduction in bacterial numbers migrating towards ligand, Δtlp3 compared to wild type: attractants
[1] = test system: recombinant Tlp3 periplasmic sensory domain peptide; assay: 96-well plate binding assay; set-up: species or system Campylobacter jejuni; key: Y: positive binding significantly above background; N: binding not significantly above background; conditions: non-covalent presentation
Protocol: (§1) The array assay presents the compounds covalently bound to an epoxide group resulting in a high probability of a single molecular orientation. The plate assay relies on non-covalent charge and hydrophobic/hydrophilic interactions for presentation of the molecules offering a different presentation to the array.
(§2) Amino acid and small molecule arrays and plate based binding assays were performed as previously described.. […] SPR experiments were performed using a Biacore T100 biosensor system (GE- healthcare) at 25°C in 1× PBS pH 7.2 at a flow rate of 30 µl/min. […] Amino acids were prepared in 1 × PBS pH 7.2 and serially diluted from 0.0125 to 0.2 mM. The amino acids were loaded to the sensor chip using single-cycle kinetics, i.e. after the injection of five amino acid dilutions the chip was regenerated with EDTA. Subsequently, the chip was re-loaded with Ni^2+ and His-Tlp3 before the injection of the next amino acid to be tested. A 10 min dissociation time was allowed after the addition of each analyte. SPR signals were analyzed using the Biacore Evaluation software to determine KD.

His-Tlp3 = His-Tlp3 (Campylobacter jejuni, UniProt Q0P864); assay: biochemical; type: binding; conditions: for SPR interaction with Tlp3 (in words): two-fold serial dilution between 12.5 and 200 µM
Protocol: as §2
All interactions present were tested with a two-fold serial dilution between 12.5 and 200 µM. (TIF) Click here for additional data file.

C. jejuni 11168-O = type: cell-based, Campylobacter jejuni; conditions: for Chemotactic response: nutrient depleted chemotaxis assay, 11168-O vs Δtlp3
[2] = test system: recombinant Cj1564 (Tlp3) periplasmic sensory domain peptide; assay: 1H STD-NMR analysis, single ligand and competition; type: binding, Campylobacter jejuni; conditions: for STD-NMR binding to Tlp3 (in words): ligand alone with Tlp3; for Binding preference in competition STD experiments: two ligands together with Tlp3
Protocol: Recombinant Tlp3 (1 mg/mL, 100 µL) dissolved in D2O (99.99% D Cambridge Isotopes) containing 50 mM NaCl and 50 mM KH2PO4 and added to various ligands (1 mg/mL, 150 µL ∼150 mole equivalents) also dissolved in D2O (99.99% D Cambridge Isotopes) containing 50 mM NaCl and 50 mM KH2PO4 to give a total volume of 250 µL in a 3 mm NMR tube for NMR analysis. Control samples were prepared in an identical manner without Tlp3 added. All NMR experiments were performed on a Bruker Avance 600 MHz spectrometer, equipped with a 5-mm TXI probe with triple axis gradients at 283 K without sample spinning. ^1H NMR spectra were acquired with 32 scans, a 2 s relaxation delay over a spectral width of 6000 Hz. Solvent suppression of the residual HDO peak was achieved by continuous low-power presaturation pulse during the relaxation delay. […] A 100 µs delay between each soft pulse was applied, resulting in a total saturation time of 2 s and 2 K scans.
Data were obtained with an interspersed acquisition of pseudo-two-dimensional on-resonance and off-resonance spectra in order to minimize the effects of temperature and magnet instability. On- and off-resonance spectra were processed separately, and the final STD-NMR spectrum was obtained by subtracting the individual on- and off-resonance spectra, resulting in less subtraction artefacts. Relative STD effects were calculated according to the equation ASTD = (I0−Isat)/I0 = ISTD/I0 by comparing the intensity of the signals in the STD-NMR spectrum (ISTD) with signal intensities of a reference spectrum (I0). The STD signal with the highest intensity was set to 100% and other STD signals were calculated accordingly. A spin lock field of 10 ms was applied to remove unwanted background protein signals. […] Control STD-NMR experiments were performed using an identical experimental setup and the same ligand concentration but in the absence of the protein.

[3] = test system: recombinant Tlp3 periplasmic sensory domain peptide; assay: Amino acid and small molecule array binding assay; set-up: species or system Campylobacter jejuni; key: Y: positive binding significantly above background; N: binding not significantly above background; conditions: compounds covalently bound to an epoxide group
Protocol: as §1, §2

[4] = Binding Affinity (KD), SPR, 25°C, 1× PBS pH 7.2
[5] = wild type 11168-O, plug with 2 mM ligand, 37°C, 4 h
Throughout, for Chemotactic response: key: +: positive response (chemoattractant); −: negative response (chemorepellent).

Sequence of His-Tlp3 (Q0P864 entry or part of it): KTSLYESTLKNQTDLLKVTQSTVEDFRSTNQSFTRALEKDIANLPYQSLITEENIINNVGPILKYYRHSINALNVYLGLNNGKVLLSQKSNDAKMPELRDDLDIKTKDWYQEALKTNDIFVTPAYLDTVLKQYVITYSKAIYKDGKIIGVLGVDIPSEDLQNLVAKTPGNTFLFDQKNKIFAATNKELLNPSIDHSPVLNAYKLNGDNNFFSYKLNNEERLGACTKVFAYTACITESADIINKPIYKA

SMILES	Increase in bacterial numbers around ligand plug, Δtlp3 compared to wild type (C. jejuni 11168-O Δtlp3) [log]	Viable counts of C. jejuni associated with ligand plug (C. jejuni 11168-O Δtlp3)	Plate assay [1]	pKd (His-Tlp3; [4])	Chemotactic response (C. jejuni 11168-O)	Viable counts of C. jejuni associated with ligand plug (C. jejuni 11168-O; [5])	STD-NMR binding to Tlp3 (in words) ([2]; 283 K)	Reduction in bacterial numbers migrating towards ligand, Δtlp3 compared to wild type (C. jejuni 11168-O Δtlp3) [log]	Array binding [3]	other results
O=C(O)CCC(=O)O [Succinic Acid]	1	2 × 10^7 cfu/ml	Y	4.48	−					Viable counts of C. jejuni associated with ligand plug (C. jejuni 11168-O): 1.5 × 10^6 cfu/ml
NC(=O)C[C@H](N)C(=O)O [asparagine]										SPR interaction with Tlp3 (in words) (His-Tlp3): No interaction observed
Cc1ncc(C[n+]2csc(CCO)c2C)c(N)n1 [Thiamine]	1	9 × 10^6 cfu/ml	Y	> 4.30	−					Viable counts of C. jejuni associated with ligand plug (C. jejuni 11168-O): 4 × 10^5 cfu/ml
N[C@H]1C(O)O[C@H](CO)[C@@H](O)[C@@H]1O (stereo partly shown) [Glucosamine]	3	7.8 × 10^6 cfu/ml	Y	5.11	−	1.68 × 10^3 cfu/ml	No signals were detected			Dissociation rate from Tlp3 (in words) (His-Tlp3; SPR): slow disassociation rates
c1ncc2nc[nH]c2n1 [Purine]		1.08 × 10^5 cfu/ml	Y	4.42	+	1.4 × 10^6 cfu/ml	Binding was observed	1		STD effect of H2 protons, fold lesser than H6 ([2]; pyrimidine ring protons, 283 K): ~5 fold; Binding preference in competition STD experiments [2]: binds preferentially over lysine; also recorded: binds preferentially over arginine
O=C(O)CCC(=O)C(=O)O [α-ketoglutarate]			Y						Y	pKd (His-Tlp3; SPR, 25°C, 1× PBS pH 7.2, read-out: Binding Affinity (KD)): 3.53; Chemotaxis assay outcome (in words) (C. jejuni 11168-O; data not shown): not definitive
NCCCC[C@H](N)C(=O)O [Lysine]	2	2.4 × 10^5 cfu/ml	Y	~5.55 and 5.55	−	2.2 × 10^3 cfu/ml	Binding was observed		N	Binding affinity of lysine relative to arginine, fold stronger (His-Tlp3; ratio of SPR KD values): ~14 fold
CC[C@H](C)[C@H](N)C(=O)O [Isoleucine]		3.6 × 10^2 cfu/ml	Y		+	6 × 10^6 cfu/ml	Binding was observed	4	Y	Binding preference in competition STD experiments [2]: binds preferentially over arginine; also recorded: binds preferentially over lysine
O=C(O)/C=C/C(=O)O [Fumaric Acid]		9 × 10^2 cfu/ml	Y		+	4.14 × 10^6 cfu/ml		4		pKd (His-Tlp3): < 2.00
C[C@H](N)C(=O)O [alanine]										SPR interaction with Tlp3 (in words) (His-Tlp3): No interaction observed
N[C@@H](CC(=O)O)C(=O)O [Aspartate]		3.7 × 10^3 cfu/ml	Y		+	7.8 × 10^6 cfu/ml		3	N	
N=C(N)NCCC[C@H](N)C(=O)O [Arginine]	1	6.8 × 10^7 cfu/ml	Y		−	1.3 × 10^6 cfu/ml	Binding was observed		N	Binding preference in competition STD experiments [2]: preferential binding of arginine over lysine
O=C(O)CC(O)C(=O)O (stereo not shown) [Malic Acid]		1.13 × 10^3 cfu/ml	Y		+	9 × 10^5 cfu/ml	No signals were detected	2		Dissociation rate from Tlp3 (in words) (His-Tlp3; SPR): slow disassociation rates
